# In ChEMBL document CHEMBL5236550, “Small molecule selenium-containing compounds: Recent development and therapeutic applications” (Eur J Med Chem, 2021):
# Experiments:
# Pichia kudriavzevii = assay: Antifungal activity against Candida krusei assessed as fungal growth inhibition incubated for 24 to 48 hrs by microdilution method; type: functional; conditions: time 24-48 hrs
# MCF7 [1] = assay: Anticancer activity against human MCF7 cells assessed as cell growth inhibition incubated for 24 hrs by ELISA based CCK8 assay; type: functional; conditions: MCF7, 24 h
# HepG2 [2] = assay: Anticancer activity against human HepG2 cells assessed as cell growth inhibition incubated for 48 hrs; type: functional, cell-based; conditions: HepG2, 48 h
# HeLa [3] = assay: Anticancer activity against human HeLa cells assessed as cell growth inhibition incubated for 48 hrs; type: functional, cell-based
# MDA-MB-231 = assay: Anticancer activity against human MDA-MB-231 cells assessed as cell growth inhibition incubated for 72 hrs by MTT assay; type: functional, cell-based; conditions: MDA-MB-231, 72 h
# MCF7 [4] = assay: Anticancer activity against human MCF7 cells assessed as cell growth inhibition incubated for 72 hrs by MTT assay; type: functional, cell-based; conditions: MCF7, 72 h
# CNE-2 = assay: Anticancer activity against human CNE-2 cells assessed as cell growth inhibition incubated for 72 hrs by MTT assay; type: functional, cell-based; conditions: CNE-2, 72 h
# HL-60 = assay: Anticancer activity against human HL-60 cells assessed as cell growth inhibition incubated for 72 hrs by MTT assay; type: functional, cell-based; conditions: HL-60, 72 h
# SW-620 = assay: Anticancer activity against human SW620 cells assessed as cell growth inhibition incubated for 72 hrs by MTT assay; type: functional, cell-based; conditions: SW-620, 72 h
# A-375 [5] = assay: Anticancer activity against human A-375 cells assessed as cell growth inhibition incubated for 72 hrs by MTT assay; type: functional, cell-based; conditions: A-375, 72 h
# Plasmodium falciparum = assay: […] inhibition incubated for 72 hrs by light microscopic analysis; type: functional, organism-based; conditions: K-1, 72 h
# [6] = Antitumor activity against human 1205Lu cells xenografted with mouse assessed as reduction in tumor volume at 0.127 uM, ip administered alternate days for 4 week relative to control; type: functional; set-up: scale not given: the % may be the effect or the level left; conditions: time 4 weeks
# [7] = Anticancer activity against human WM35 cells assessed as cell growth inhibition incubated for 72 hrs by MTS assay; type: functional, cell-based; conditions: WM35, 72 h, pooled result: one value given for 4 cell lines, strains, targets or settings
# UACC-903 = assay: Antitumor activity against human UACC-903 cells xenografted with mouse assessed as reduction in tumor volume at 0.127 uM, ip administered alternate days for 4 week relative to control; type: functional; set-up: scale not given: the % may be the effect or the level left; conditions: time 4 weeks
# MCF7 [8] = assay: Anticancer activity against human MCF7 cells assessed as cell growth inhibition; type: functional, cell-based
# T47D = assay: Anticancer activity against human T47D cells assessed as cell growth inhibition; type: functional, cell-based
# Carbonic anhydrase 1 = Carbonic anhydrase 1 (Homo sapiens, UniProt P00915); assay: Inhibition of human carbonic anhydrase 1 assessed as inhibition constant
# Chain of Carbonic anhydrase 1 (P00915 whole entry): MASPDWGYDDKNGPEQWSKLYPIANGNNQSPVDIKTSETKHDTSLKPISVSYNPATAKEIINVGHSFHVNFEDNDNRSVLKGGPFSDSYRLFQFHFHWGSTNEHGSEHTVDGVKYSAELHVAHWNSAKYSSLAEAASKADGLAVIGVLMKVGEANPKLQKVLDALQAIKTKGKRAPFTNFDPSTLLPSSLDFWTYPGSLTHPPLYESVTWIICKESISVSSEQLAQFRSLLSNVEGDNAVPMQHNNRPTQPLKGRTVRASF
# Carbonic anhydrase 2 = Carbonic anhydrase 2 (Homo sapiens, UniProt P00918); assay: Inhibition of human carbonic anhydrase 2 assessed as inhibition constant
# NCI-H1299 = assay: Anticancer activity against human H1299 cells assessed as cell growth inhibition incubated for 48 hrs by MTT assay; type: functional, cell-based; conditions: NCI-H1299, 48 h
# Calu-1 = assay: Anticancer activity against human HTB-54 cells assessed as cell growth inhibition incubated for 48 hrs by MTT assay; type: functional, cell-based; conditions: Calu-1, 48 h
# HeLa [9] = assay: Anticancer activity against human HeLa cells assessed as cell growth inhibition incubated for 72 hrs by MTT assay; type: functional, cell-based
# PC-3M = assay: Anticancer activity against human PC-3M cells assessed as cell growth inhibition incubated for 24 hrs by MTT assay; type: functional, cell-based
# [10] = Anticancer activity against human PMNL assessed as cell growth inhibition; type: functional, cell-based
# Human alphaherpesvirus 1 = assay: Antiviral activity against Herpes simplex virus 1infected in A549 cells assessed as viral growth inhibition incubated for 1 hrs; type: functional
# [11] = system: Encephalomyocarditis virus; assay: Antiviral activity against Encephalomyocarditis virus infected in A549 cells assessed as viral growth inhibition incubated for 1 hrs; type: functional, organism-based; conditions: Cardiovirus A, A549, 1 h
# BGC-823 = assay: Anticancer activity against human BGC-823 cells assessed as cell growth inhibition incubated for 72 hrs by MTT assay; type: functional, cell-based; conditions: BGC-823, 72 h
# Caco-2 = assay: Anticancer activity against human Caco-2 cells assessed as cell growth inhibition incubated for 72 hrs by MTT assay; type: functional, cell-based; conditions: Caco-2, 72 h
# PC-3 = assay: Anticancer activity against human PC-3 cells assessed as cell growth inhibition incubated for 72 hrs by MTT assay; type: functional, cell-based; conditions: PC-3, 72 h
# MCF7 [12] = assay: Anticancer activity against human MCF7 cells assessed as cell growth inhibition incubated for 72 hrs by fluorescence based MTT assay; type: functional; conditions: MCF7, 72 h
# HepG2 [13] = assay: Anticancer activity against human HepG2 cells assessed as cell growth inhibition incubated for 72 hrs by fluorescence based MTT assay; type: functional; conditions: HepG2, 72 h
# A-375 [14] = assay: Anticancer activity against human A-375 cells assessed as cell growth inhibition incubated for 72 hrs by fluorescence based MTT assay; type: functional; conditions: A-375, 72 h
# [15] = Anticancer activity against human PMNL assessed as cell growth inhibition incubated for 5 mins by luminescence reader analysis; type: functional, cell-based
# Candida albicans [16] = assay: Antifungal activity against Candida albicans ATC90028 assessed as […] growth inhibition; type: functional
# Candida albicans [17] = assay: Antifungal activity against Candida albicans ATC90028 assessed as zone of inhibition; type: functional
# PANC-1 = assay: Anticancer activity against human PANC-1 cells assessed as cell growth inhibition by crystal violet staining based assay; type: functional
# [18] = Anticancer activity against human Ela-myc- cells assessed as cell growth inhibition by crystal violet staining based assay; type: functional; conditions: Ela-myc-1 cell
# Hs68 = assay: Anticancer activity against human Hs68 cells assessed as cell growth inhibition incubated for 72 hrs by MTT assay; type: functional, cell-based; conditions: Hs68, 72 h
# UACC-375 = assay: Anticancer activity against human UACC-375 cells assessed as cell growth inhibition measured after 6 days by SRB assay; type: functional, cell-based
# A549 = assay: Anticancer activity against human A549 cells assessed as cell growth inhibition measured after 6 days by SRB assay; type: functional, cell-based; conditions: A549, 144 h
# HT-29 = assay: Anticancer activity against human HT-29 cells assessed as cell growth inhibition measured after 6 days by SRB assay; type: functional, cell-based; conditions: HT-29, 144 h
# DU-145 = assay: Anticancer activity against human DU-145 cells assessed as cell growth inhibition measured after 6 days by SRB assay; type: functional, cell-based; conditions: DU-145, 144 h
# MCF7S = assay: Anticancer activity against human MCF7S cells assessed as cell growth inhibition measured after 6 days by SRB assay; type: functional; conditions: time 6 day
smiles,measurement,setting,value
Clc1ccc(-c2c[se]c(NN=C3CCSCC3)n2)cc1,MIC,Pichia kudriavzevii,3.91 mg/L
Clc1ccc([Se][Se]c2ccc(Cl)nn2)nn1,IC50,MCF7 [1],10.3 µM
CN(C)c1ccc(/C=C/c2c3ccccc3c(/C=C/c3ccc(OCCCCCC[Se][Se]CCCCCCOc4ccc(/C=C/c5c6ccccc6c(/C=C/c6ccc(N(C)C)cc6)c6ccccc56)cc4)cc3)c3ccccc23)cc1,IC50,HepG2 [2],4.45 µM
same,IC50,HeLa [3],3.96 µM
c1ccc2[nH]c(-c3ccc4n[se]nc4c3)nc2c1,IC50,MDA-MB-231,12.3 µM
same,IC50,MCF7 [4],15.4 µM
N[C@@H](C[Se][Se]C[C@H](N)C(=O)O)C(=O)O,IC50,CNE-2,5.6 µM
same,IC50,HL-60,34.5 µM
same,IC50,SW-620,7.3 µM
same,IC50,A-375 [5],3.6 µM
same,IC50,Plasmodium falciparum,65 µM
NC(CCC(=O)NC(CS[Se]Cc1cc(-c2ccccc2)n(-c2ccc(S(N)(=O)=O)cc2)n1)C(=O)NCC(=O)O)C(=O)O (stereo not drawn),Activity,[6],70%
same,IC50,[7],7.66 µM
same,Activity,UACC-903,70%
Ic1ccc(-c2c[se]c(NN=C3CCSCC3)n2)cc1,MIC,Pichia kudriavzevii,0.98 mg/L
O=C(NC(=[Se])Nc1ccccc1)c1cccs1,IC50,MCF7 [8],4.2 µM
same,IC50,T47D,6.1 µM
[Se]=P(c1ccccn1)(c1ccccn1)c1ccccn1,Ki,Carbonic anhydrase 1,0.0563 µM
same,Ki,Carbonic anhydrase 2,0.0537 µM
Cc1ccc(NC(=[Se])NC(=O)c2ccc3c(c2)OCO3)cc1,IC50,NCI-H1299,1.5 µM
same,IC50,Calu-1,5.9 µM
Cc1ccc2nc(-c3ccc4n[se]nc4c3)[nH]c2c1,IC50,MDA-MB-231,1 µM
same,IC50,MCF7 [4],4.1 µM
O=[N+]([O-])c1ccc2n[se]nc2c1,IC50,HeLa [9],4.8 µM
Brc1ccc2nc(-c3ccc4n[se]nc4c3)[nH]c2c1,IC50,MDA-MB-231,1.3 µM
same,IC50,MCF7 [4],15.5 µM
N#C[Se]Cc1cc(-c2ccccc2)n(-c2ccc(S(N)(=O)=O)cc2)n1,IC50,PC-3M,5 µM
CN(C)C(N)=[Se],IC50,[10],6.8 µM
CCOC(=O)n1[se]c2ccccc2c1=O,MIC,Human alphaherpesvirus 1,10 mg/L
same,IC50,[11],10 mg/L
O=C(NCCC[Se][Se]CCCNC(=O)c1ccccc1Nc1cccc(C(F)(F)F)c1)c1ccccc1Nc1cccc(C(F)(F)F)c1,IC50,MCF7 [4],6.8 µM
same,IC50,BGC-823,8.3 µM
same,IC50,Caco-2,3.9 µM
same,IC50,PC-3,6.6 µM
O=c1[nH]c(=O)c2n[se]nc2[nH]1,IC50,MCF7 [12],46 µM
same,IC50,HepG2 [13],19.6 µM
same,IC50,A-375 [14],14.3 µM
CCN(CC)C(=[Se])c1ccc(Cl)cc1,IC50,[15],20.3 µM
Clc1ccc2nc(-c3ccc4n[se]nc4c3)[nH]c2c1,IC50,MDA-MB-231,2.1 µM
same,IC50,MCF7 [4],26.3 µM
Cc1ccc(-c2cc(C(F)(F)F)nn2-c2ccc(S(N)(=O)=O)cc2)cc1 [CELECOXIB],IC50,[7],55.6 µM
Clc1ccccc1C(c1ccccc1)(c1ccccc1)n1ccnc1 [CLOTRIMAZOLE],MIC,Candida albicans [16],6.25 mg/L
same,inhibition zone (IZ),Candida albicans [17],28 mm
C[Se](=O)O [METHYLSELENINIC ACID],IC50,PANC-1,2.6 µM
same,IC50,MCF7 [8],2 µM
same,IC50,Plasmodium falciparum,10 µM
same,IC50,[18],3.2 µM
C[Se]C[C@H](N)C(=O)O [METHYLSELENOCYSTEINE],IC50,Hs68,50 µM
same,IC50,SW-620,633 µM
same,IC50,A-375 [5],54 µM
same,IC50,MCF7 [4],193 µM
C[Se]CC[C@H](N)C(=O)O [SELENOMETHIONINE],IC50,"UACC-375; Homo sapiens, UACC-375, 144 h",50 µM
same,IC5,UACC-375; time 6 day,50 µM
same,IC50,A549,65 µM
same,IC50,HT-29,130 µM
same,IC50,Plasmodium falciparum,45 µM
same,IC50,DU-145,40 µM
same,IC5,MCF7S,45 µM
